Laboratory results taken from patent US12195490B2, “STRAD-binding agents and uses thereof” (The Regents of the University of California, priority 2020, dated 2025).
Where a name gives a salt, the structure may show the parent alone.

The molecules below were run on ACHN cell line (assay: drug screen of the SelleckChem kinase inhibitor library with and without 5 uM SU-329, Cell-Titer Glo after 5 days). Conditions: kinase inhibitor at 200 nM with and without 5 uM SU329; ACHN cell line; 5 days; Cell-Titer Glo.
Format: cell-based
With `Cc1[nH]c(/C=C2\C(=O)Nc3ccccc32)c(C)c1CCC(=O)O` [Orantinib (TSU-68, SU6668)] the log2fc was −0.2487.
`COc1ccc(S(=O)(=O)N(C(C)=O)c2ccccc2/C=C/c2cc[n+]([O-])cc2)cc1` [HMN-214] was tested, and the log2fc was 0.2477.
`Cc1ncc(-c2ccnc(Nc3ccc(S(C)(=O)=O)cc3)n2)n1C(C)C` [AZD5438] showed a log2fc of 1.871.
`Cc1cnc(Nc2ccc(N3CCN(C)CC3)cc2)nc1Nc1cccc(S(=O)(=O)NC(C)(C)C)c1` [TG101209] was tested, and the log2fc was −0.1573.
For `COc1ccc2c(Oc3ccc(NC(=O)c4c(C)n(CC(C)(C)O)n(-c5ccccc5)c4=O)nc3)ccnc2c1` [AMG-458], the log2fc was 0.0395.
Work on `Cc1ccc(F)c(NC(=O)Nc2ccc(-c3cccc4[nH]nc(N)c34)cc2)c1` [Linifanib (ABT-869)] yielded a log2fc of −0.2483.
`Cc1cc(F)c(Nc2ncnc3cc(OCc4ccccc4)ccc23)cc1O.Cl` [ZM 323881 HCl] gave a log2fc of 0.1765.
`COc1cc2ncnc(Nc3ccc(F)c(Cl)c3)c2cc1NC(=O)/C=C/CN1CCCCC1` [Dacomitinib (PF299804, PF299)] was tested, and the log2fc was 0.3997.
For `S=C(NCc1ccc2c(c1)OCO2)N1CCN(c2ncnc3c2oc2ccccc23)CC1` [Amuvatinib (MP-470)], the log2fc was −0.2594.
For `N#Cc1c(Oc2ccc(F)c(NC(=O)Cc3cccc(C(F)(F)F)c3)c2)ccc2nc(NC(=O)C3CC3)sc12` [TAK-632], the log2fc was 0.4732.
With `Oc1cccc(-c2nc(N3CCOCC3)c3oc4ncccc4c3n2)c1` [PI-103] the log2fc was −1.021.
`CO[C@H]1C[C@@H]2CC[C@@H](C)[C@@](O)(O2)C(=O)C(=O)N2CCCC[C@H]2C(=O)O[C@H]([C@H](C)C[C@@H]2CC[C@@H](OCCO)[C@H](OC)C2)CC(=O)[C@H](C)/C=C(\C)[C@@H](O)[C@@H](OC)C(=O)[C@H](C)C[C@H](C)/C=C/C=C/C=C/1C` [Everolimus (RAD001)] showed a log2fc of −1.364.
`Cn1cc(-c2ccc3nnc(C(F)(F)c4ccc5ncccc5c4)n3n2)cn1` [JNJ-38877605] gave a log2fc of 0.02907.
`COc1cc(Nc2c(C#N)cnc3cc(OCCCN4CCN(C)CC4)c(OC)cc23)c(Cl)cc1Cl` [Bosutinib (SKI-606)] was tested, and the log2fc was −0.1583.
`Cc1nc(NC(=O)N2CCC[C@H]2C(N)=O)sc1-c1ccnc(C(C)(C)C(F)(F)F)c1` [Alpelisib (BYL719)] was tested, and the log2fc was −0.1349.
Work on `CNC(=O)c1cc(Oc2ccc(NC(=O)Nc3ccc(Cl)c(C(F)(F)F)c3)cc2)ccn1` [Sorafenib Tosylate] yielded a log2fc of −0.2533.
With `O=C1NC(=O)/C(=C/c2ccc3c(c2)OC(F)(F)O3)S1` [AS-604850] the log2fc was 0.4876.
With `CNC(=O)c1ccccc1Sc1ccc2c(/C=C/c3ccccn3)n[nH]c2c1` [Axitinib] the log2fc was 0.00155.
With `Cc1c(NC(=O)OC[C@@H]2COCCN2)cn2ncnc(Nc3ccc4c(cnn4Cc4cccc(F)c4)c3)c12` [AC480 (BMS-599626)] the log2fc was 0.6806.
Molecule `COc1cc2c(Nc3ccc(NC(=O)c4ccccc4)cc3)ncnc2cc1OCCCN1CCOCC1` [ZM 447439] has a log2fc of 0.52.
Molecule `CCOc1cc(N2CCC(O)CC2)ccc1Nc1ncc2c(n1)N(C)c1ccccc1C(=O)N2C` [XMD8-92] has a log2fc of −0.09901.
For `CNC(=O)c1cccc(-c2ccc3c(N4CCOC[C@@H]4C)nc(N4CCOC[C@@H]4C)nc3n2)c1` [Vistusertib (AZD2014)], the log2fc was −0.8127.
`COc1cc(OC)c(/C=C/S(=O)(=O)Cc2ccc(OC)c(NCC(=O)O)c2)c(OC)c1` [Rigosertib (ON-01910)] gave a log2fc of 0.6643.
For `O=C1Nc2ccc(I)cc2/C1=C/c1cc(Br)c(O)c(Br)c1` [GW5074], the log2fc was 0.4071.
Molecule `Oc1ccc2ccccc2c1SSc1c(O)ccc2ccccc12` [IPA-3] has a log2fc of 0.5168.
`Cc1cc(O)c2c(c1)C(=O)c1cccc(O)c1C2=O` [Chrysophanic Acid] gave a log2fc of −0.1902.
`Cc1csc(-c2nnc(Nc3ccc(Oc4ncccc4-c4ccnc(N)n4)cc3)c3ccccc23)c1` [AMG-900] showed a log2fc of 0.883.
`C#Cc1cccc(Nc2ncnc3cc(OC)c(OCCCCCCC(=O)NO)cc23)c1` [CUDC-101, reference compound] gave a log2fc of 0.1269.
